Measurements published in ChEMBL document CHEMBL1201862, “PubChem BioAssay data set” (2004).
Calls of active or inactive are those of the source.

What was measured:
[1] = target: T1, Sentrin-specific protease 7 (Homo sapiens, UniProt Q9BQF6); assay type: functional;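 also: Luminescence-based dose-response confirmation of ultra-high-throughput screening hits, measuring inhibition of SENP7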
T1 sequence (Q9BQF6 whole entry): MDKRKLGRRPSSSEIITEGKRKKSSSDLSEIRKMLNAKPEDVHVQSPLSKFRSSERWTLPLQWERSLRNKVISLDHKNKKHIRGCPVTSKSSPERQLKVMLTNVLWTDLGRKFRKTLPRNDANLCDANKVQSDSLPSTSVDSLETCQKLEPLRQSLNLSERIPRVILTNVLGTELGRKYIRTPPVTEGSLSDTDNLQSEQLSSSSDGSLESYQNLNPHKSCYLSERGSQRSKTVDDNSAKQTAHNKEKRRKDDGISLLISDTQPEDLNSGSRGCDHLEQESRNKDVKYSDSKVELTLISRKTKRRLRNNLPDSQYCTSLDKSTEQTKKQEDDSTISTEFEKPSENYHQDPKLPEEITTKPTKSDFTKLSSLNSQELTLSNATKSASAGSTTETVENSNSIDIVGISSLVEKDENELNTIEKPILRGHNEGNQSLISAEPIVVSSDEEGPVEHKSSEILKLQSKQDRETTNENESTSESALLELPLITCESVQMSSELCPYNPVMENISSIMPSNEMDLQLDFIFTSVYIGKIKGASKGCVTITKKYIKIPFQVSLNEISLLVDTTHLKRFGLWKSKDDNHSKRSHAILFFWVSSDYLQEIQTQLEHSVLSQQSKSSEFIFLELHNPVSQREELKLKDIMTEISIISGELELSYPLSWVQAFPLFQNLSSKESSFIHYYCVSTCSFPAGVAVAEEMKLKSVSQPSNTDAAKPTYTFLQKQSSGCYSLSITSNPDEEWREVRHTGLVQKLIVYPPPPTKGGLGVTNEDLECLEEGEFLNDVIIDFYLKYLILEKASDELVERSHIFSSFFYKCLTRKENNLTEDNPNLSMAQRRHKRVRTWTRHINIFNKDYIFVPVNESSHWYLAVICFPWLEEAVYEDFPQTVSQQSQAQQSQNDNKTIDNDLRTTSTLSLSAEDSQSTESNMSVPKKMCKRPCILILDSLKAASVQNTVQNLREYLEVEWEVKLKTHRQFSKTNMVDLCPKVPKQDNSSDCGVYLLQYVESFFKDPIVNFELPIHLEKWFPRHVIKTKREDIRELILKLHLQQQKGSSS

[2] = target: T2, Sentrin-specific protease 6 (Homo sapiens, UniProt Q9GZR1); assay type: functional;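 also: Luminescence-based dose-response confirmatory assay of SENP6 inhibition, following up an ultra-high-throughput screen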
T2 sequence (Q9GZR1 whole entry): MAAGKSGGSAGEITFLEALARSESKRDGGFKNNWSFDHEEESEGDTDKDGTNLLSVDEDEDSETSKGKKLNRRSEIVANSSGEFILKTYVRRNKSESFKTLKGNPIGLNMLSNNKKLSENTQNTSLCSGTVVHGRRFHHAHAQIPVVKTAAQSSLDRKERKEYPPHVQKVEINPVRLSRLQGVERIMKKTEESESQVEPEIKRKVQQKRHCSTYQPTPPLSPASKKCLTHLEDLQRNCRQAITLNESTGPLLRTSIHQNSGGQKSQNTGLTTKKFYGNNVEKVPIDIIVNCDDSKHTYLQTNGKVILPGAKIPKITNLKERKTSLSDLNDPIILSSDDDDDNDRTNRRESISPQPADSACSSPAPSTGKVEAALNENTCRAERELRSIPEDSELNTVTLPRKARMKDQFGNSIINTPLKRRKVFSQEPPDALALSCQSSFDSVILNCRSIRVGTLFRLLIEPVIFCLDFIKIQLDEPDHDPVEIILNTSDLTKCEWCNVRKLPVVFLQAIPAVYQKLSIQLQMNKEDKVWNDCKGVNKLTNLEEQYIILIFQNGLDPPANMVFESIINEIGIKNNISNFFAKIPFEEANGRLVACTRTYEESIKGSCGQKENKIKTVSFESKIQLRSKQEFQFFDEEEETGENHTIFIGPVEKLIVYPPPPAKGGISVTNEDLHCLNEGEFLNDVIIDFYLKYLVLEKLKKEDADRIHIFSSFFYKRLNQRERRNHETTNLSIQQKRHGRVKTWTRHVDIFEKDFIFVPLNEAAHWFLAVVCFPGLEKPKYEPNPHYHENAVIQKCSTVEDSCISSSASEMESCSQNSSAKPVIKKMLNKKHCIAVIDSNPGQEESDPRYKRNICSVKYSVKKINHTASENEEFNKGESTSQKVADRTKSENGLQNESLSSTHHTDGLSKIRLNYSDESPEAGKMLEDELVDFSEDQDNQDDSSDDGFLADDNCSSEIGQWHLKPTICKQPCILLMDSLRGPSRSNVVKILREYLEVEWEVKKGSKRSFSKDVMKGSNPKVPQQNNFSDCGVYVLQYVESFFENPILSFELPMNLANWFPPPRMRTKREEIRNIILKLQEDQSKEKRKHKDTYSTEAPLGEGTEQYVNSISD

[3] = target: T3, Caspase-3 (Homo sapiens, UniProt P42574); assay type: functional;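 also: Dose-response selectivity test against caspase-3 for candidate inhibitors of sentrin-specific proteases (SENPs)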
T3 sequence (P42574 whole entry): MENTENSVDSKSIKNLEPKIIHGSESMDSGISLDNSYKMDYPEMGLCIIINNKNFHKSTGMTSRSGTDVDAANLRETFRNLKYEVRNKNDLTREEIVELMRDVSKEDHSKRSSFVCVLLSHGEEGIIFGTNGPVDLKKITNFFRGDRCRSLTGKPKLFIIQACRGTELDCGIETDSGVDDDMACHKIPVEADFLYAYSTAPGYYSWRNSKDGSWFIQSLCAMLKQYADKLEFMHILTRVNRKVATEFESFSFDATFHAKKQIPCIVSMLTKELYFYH

[4] = system: Streptococcus; assay: GAS UMAA2166 growth inhibition – luminescence, BacTiterGlo, counter-screen for streptokinase expression inhibitor project, dose response (AID 1915); assay type: functional, organism-based;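 also: potency for reduction of bacterial viability or growth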
[5] = system: Streptococcus sp. 'group A'; assay: Streptococcus pyogenes SK(-)GAS viability under kanamycin – luminescence, BacTiterGlo, confirmation, counter-screen for streptokinase expression inhibitor project, dose response (AID 1900); assay type: functional, organism-based
[6] = target: Mitogen-activated protein kinase kinase kinase kinase 4 (Homo sapiens, UniProt O95819); assay type: functional
Sequence of Mitogen-activated protein kinase kinase kinase kinase 4 (O95819 whole entry): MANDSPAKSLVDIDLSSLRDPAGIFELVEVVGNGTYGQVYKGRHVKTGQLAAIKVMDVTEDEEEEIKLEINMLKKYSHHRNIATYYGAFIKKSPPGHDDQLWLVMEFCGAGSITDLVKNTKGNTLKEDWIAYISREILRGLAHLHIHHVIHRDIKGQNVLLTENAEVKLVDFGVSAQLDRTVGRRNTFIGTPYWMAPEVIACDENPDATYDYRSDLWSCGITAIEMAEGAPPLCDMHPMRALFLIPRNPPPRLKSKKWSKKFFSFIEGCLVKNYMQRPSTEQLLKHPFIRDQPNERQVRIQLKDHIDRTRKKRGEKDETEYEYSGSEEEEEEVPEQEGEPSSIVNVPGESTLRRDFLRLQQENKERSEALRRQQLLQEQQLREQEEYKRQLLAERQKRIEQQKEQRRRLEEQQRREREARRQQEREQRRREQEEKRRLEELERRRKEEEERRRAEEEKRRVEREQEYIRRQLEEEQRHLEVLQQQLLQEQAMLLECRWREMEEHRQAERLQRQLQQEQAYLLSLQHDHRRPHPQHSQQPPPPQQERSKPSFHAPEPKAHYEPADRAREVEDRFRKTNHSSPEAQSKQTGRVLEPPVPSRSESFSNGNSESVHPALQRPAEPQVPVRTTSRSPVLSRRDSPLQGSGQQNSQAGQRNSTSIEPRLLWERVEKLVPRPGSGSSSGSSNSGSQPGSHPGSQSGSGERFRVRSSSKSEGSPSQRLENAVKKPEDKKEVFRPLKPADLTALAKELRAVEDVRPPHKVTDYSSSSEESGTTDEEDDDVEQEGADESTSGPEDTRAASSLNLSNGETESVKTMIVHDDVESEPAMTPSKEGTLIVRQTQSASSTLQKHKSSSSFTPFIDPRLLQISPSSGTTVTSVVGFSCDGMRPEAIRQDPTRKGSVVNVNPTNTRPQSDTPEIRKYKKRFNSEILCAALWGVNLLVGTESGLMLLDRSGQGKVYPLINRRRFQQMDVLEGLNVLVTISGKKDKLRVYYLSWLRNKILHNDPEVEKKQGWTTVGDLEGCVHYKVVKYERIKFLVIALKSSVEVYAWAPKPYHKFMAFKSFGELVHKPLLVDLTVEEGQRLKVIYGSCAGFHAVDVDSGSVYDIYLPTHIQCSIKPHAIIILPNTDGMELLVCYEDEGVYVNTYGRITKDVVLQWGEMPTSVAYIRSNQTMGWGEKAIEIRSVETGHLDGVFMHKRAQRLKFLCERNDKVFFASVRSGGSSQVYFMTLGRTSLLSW

[7] = target: Platelet-derived growth factor receptor alpha (Homo sapiens, UniProt P16234); assay: Navigating the Kinome. Panel member name: PDGFRA; assay type: functional
Sequence of Platelet-derived growth factor receptor alpha (P16234 whole entry): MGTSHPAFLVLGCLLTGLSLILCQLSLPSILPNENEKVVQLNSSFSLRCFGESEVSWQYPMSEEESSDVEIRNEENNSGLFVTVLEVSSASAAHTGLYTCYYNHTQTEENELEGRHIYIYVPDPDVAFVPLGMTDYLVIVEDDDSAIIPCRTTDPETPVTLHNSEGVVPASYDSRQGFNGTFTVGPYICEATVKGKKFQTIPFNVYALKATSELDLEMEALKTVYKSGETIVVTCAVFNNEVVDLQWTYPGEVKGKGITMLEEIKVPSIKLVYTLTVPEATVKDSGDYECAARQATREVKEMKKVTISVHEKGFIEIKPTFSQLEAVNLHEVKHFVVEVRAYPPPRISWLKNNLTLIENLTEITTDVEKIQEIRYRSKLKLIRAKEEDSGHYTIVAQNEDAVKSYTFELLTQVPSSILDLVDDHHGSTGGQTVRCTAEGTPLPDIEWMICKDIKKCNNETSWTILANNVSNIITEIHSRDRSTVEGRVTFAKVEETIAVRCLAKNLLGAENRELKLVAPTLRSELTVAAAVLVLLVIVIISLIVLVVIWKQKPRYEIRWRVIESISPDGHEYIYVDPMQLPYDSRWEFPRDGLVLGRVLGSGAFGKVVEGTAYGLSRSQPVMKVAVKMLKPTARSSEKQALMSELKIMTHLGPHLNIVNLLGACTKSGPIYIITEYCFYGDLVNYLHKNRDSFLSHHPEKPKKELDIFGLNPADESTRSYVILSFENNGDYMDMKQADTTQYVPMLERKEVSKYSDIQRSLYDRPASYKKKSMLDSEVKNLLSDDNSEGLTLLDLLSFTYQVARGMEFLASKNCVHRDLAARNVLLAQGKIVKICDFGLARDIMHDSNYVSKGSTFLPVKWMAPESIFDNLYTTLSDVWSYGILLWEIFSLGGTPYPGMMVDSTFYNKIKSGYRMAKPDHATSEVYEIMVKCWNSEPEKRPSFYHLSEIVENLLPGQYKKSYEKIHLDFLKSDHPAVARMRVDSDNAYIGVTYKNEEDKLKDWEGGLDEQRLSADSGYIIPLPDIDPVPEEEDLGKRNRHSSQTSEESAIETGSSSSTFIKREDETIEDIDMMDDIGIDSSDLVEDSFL

[8] = target: Dual specificity tyrosine-phosphorylation-regulated kinase 1A (Homo sapiens, UniProt Q13627); assay type: functional;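 also: measured against DYRK1A as one member of a broad kinome profiling panel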
[9] = target: Aurora kinase B (Homo sapiens, UniProt Q96GD4); assay type: functional
Sequence of Aurora kinase B (Q96GD4 whole entry): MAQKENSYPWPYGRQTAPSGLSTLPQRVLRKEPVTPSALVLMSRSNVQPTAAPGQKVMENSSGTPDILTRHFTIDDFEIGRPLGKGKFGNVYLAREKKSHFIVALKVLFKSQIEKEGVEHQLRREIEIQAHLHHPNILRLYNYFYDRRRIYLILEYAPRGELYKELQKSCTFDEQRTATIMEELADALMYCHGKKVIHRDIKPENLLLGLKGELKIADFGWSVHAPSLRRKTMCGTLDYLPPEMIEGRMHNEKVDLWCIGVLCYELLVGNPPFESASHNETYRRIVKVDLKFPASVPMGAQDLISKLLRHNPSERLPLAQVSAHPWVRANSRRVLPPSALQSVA

[10] = target: Cyclin-dependent kinase 5 (Homo sapiens, UniProt Q00535); assay type: functional;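 also: CDK5 measured as one member of a kinase profiling panel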
Sequence of Cyclin-dependent kinase 5 (Q00535 whole entry): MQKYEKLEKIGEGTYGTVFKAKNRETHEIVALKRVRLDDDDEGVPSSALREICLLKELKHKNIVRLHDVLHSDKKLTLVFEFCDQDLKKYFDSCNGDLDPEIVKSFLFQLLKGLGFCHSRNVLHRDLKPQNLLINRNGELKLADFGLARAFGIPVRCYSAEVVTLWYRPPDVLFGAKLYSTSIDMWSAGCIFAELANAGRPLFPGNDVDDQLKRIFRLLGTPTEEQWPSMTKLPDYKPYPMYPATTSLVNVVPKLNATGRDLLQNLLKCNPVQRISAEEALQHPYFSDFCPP

CCCNC(=O)c1c(N)n(CC2CCCO2)c2nc3ccccc3nc12 (configuration not stated)
IC50 [1]: 2.83 µM (active)
IC50 [2]: 2.01 µM (active)
IC50 [3]: 15.2 µM (active)

O=C1/C(=C\c2cccc(O)c2O)SC(=S)N1Cc1ccccc1
EC50 [4]: 6.24 µM (active)
EC50 [5]: 2.77 µM (active)

CC(C)(C)c1cc[n+](C2=C([N-]S(=O)(=O)c3cccs3)C(=O)c3ccccc3C2=O)cc1
EC50 [4]: 7.2 µM (active)
IC50 [1]: 8.77 µM (active)
IC50 [2]: 5.53 µM (active)
IC50 [3]: 23.8 µM (active)
EC50 [5]: 2.73 µM (active)

COc1c(-c2nc3ccccc3[nH]2)c(O)cc2oc(C)cc(=O)c12
Ki [6]: 5.01 µM (active)
Ki [7]: 0.631 µM (active)
Ki [8]: 0.2 µM (active)
Ki [9]: 0.794 µM (active)
Ki [10]: 0.794 µM (active)

COC(=O)c1c(N)nc2ccccn12
Ki [6]: 12.6 µM (active)
Ki [7]: 79.4 µM (active)
Ki [8]: 39.8 µM (active)
Ki [9]: 15.8 µM (active)
Ki [10]: 39.8 µM (active)

CCc1ccc(S(=O)(=O)/N=C2\C=C(Nc3ccc(O)cc3)C(=O)c3ccccc32)cc1
EC50 [4]: 2.16 µM (active)
EC50 [5]: 1.86 µM (active)

Cc1cc([N+](=O)[O-])cc(/C=N\NC(=O)C2COc3ccccc3O2)c1O (configuration not stated)
EC50 [4]: 2.79 µM (active)
IC50 [1]: 14.5 µM (active)
IC50 [2]: 28.4 µM (active)
IC50 [3]: 17.6 µM (active)
EC50 [5]: 2.74 µM (active)

Cc1ccc(F)c(NC(=O)Nc2ccc(-c3cccc4[nH]nc(N)c34)cc2)c1 [LINIFANIB]
Ki [6]: > 5.01 µM (inactive)
Ki [7]: 0.0501 µM (active)
Ki [8]: > 2 µM (inactive)
Ki [9]: 0.0794 µM (active)
Ki [10]: > 3.16 µM (inactive)
